# Experimental data reported in patent US20230137092A1, “Composition and Method for the Treatment and Prevention of Cardiac, Pulmonary, Dermal, and Renal Fibrosis” (EMERALD HEALTH PHARMACEUTICALS INC., priority 2020, published 2023).
# How the values were obtained:
# [1] = Weight and behaviour observation during the therapeutic Ang II protocol; assay type: in vivo, mouse; details: 20 mg/kg daily oral gavage
# Protocol: (§1) For the therapeutic model, infusion of Ang II for four weeks and the compound of Formula (VIII) (20 mg/kg) was administrated after two weeks of pump implantation. Subcutaneous infusion of Ang II using ALZET osmotic minipumps was used to study the preventive effects of the compound ALZET® osmotic minipumps (Model #2004, Charles Rives, Barcelona, Spain) delivering of Ang II (500 ng kg^−1 min^−1) (Sigma-Aldrich, Madrid, Spain) for four weeks. Compound treatment was daily administered in parallel, two weeks after the implantation of the subcutaneous pump, beneath the midscapular loose skin and consisted of daily oral gavage of compound of Formula (VIII) (20 mg/kg) or vehicle (Corn Oil/Maisine CC, 1/1). Mice were acclimated to manipulators for a week previously to the experiments in order to reduce stress and allow the detection of subtle changes in behavior by researchers. […] Neither piloerection nor hunched appearances were appreciated during the experimental procedures. Mice were sacrificed by cervical dislocation and the heart, aorta, kidney, and lung were removed and processed for histological examination or were frozen for further analysis.
# [2] = test system: Ang II-induced cardiac fibrosis; test: Ang II therapeutic model: perivascular myocardial collagen deposition; assay type: in vivo, mouse; details: Ang II 500 ng kg^- min^- 28 days, 20 mg/kg oral during last 14 days, ##p<0.01 versus Ang II group
# Protocol: as §1
# [3] = Weight and behaviour observation during the preventive Ang II protocol; assay type: in vivo, mouse; details: 20 mg/kg daily oral gavage
# Protocol: Ang II causes myocardial fibrosis in a short period of time (Sopel M et al., 2011, Lab. Invest., 91:565-578) characterized by collagen accumulation and after 14 days of Ang II infusion (Sigusch H H et al., 1996, Cardiovascular Research, 31:546-554). […] Subcutaneous infusion of Ang II using ALZET® osmotic pumps was used to study compound preventive effects. ALZET® osmotic minipumps (Model #2004, Charles Rives, Barcelona, Spain) delivering of Ang II (1.0 mg kg^− min^−) (Sigma-Aldrich, Madrid, Spain) for two weeks. Compound treatment was daily administered in parallel, one day before of the implantation of the subcutaneous pump, beneath the mid scapular loose skin and consisted of daily oral gavage of compound (20 mg/kg) or vehicle (Corn Oil/Maisine CC, 1/1). Mice were acclimated to manipulators for a week previously to the experiments in order to reduce stress and allow the detection of subtle changes in behavior by researchers. […] Neither piloerection nor hunched appearances were appreciated during the experimental procedures. Mice were sacrificed by cervical dislocation and the heart, aorta, skin, and kidney were removed and processed for histological examination or were frozen for further analysis.
# NFAT = test: Gal4-NFAT / Gal4-Luc reporter assay in hICF; assay type: cell-based, human; details: hICF transfected with Gal4-Luc and Gal4-NFAT, stimulated 6 hours
# Protocol: hICF cells were transiently transfected for 24 hours with the Gal4-Luc reporter plasmid (which includes five Gal4 DNA binding sites fused to the luciferase gene) and the Gal4-NFAT1-415plasmid for 24 hours using Roti-Fect (Carl Roth GmbH & Co. KG, Karlsruhe, Germany). Then cells were stimulated for 6 hours and luciferase activity in the cell lysates was measured. The specific transactivation expressed as a percentage of activation relative to control. Compound of Formula (VIII) inhibited Ang II-induced NFAT activation (FIG. 16B).
# [4] = test system: inflammatory and fibrotic marker mRNAs in heart; test: Real-time quantitative PCR of inflammatory and fibrotic markers in heart, Ang II preventive model; assay type: in vivo, mouse; details: Ang II infused mice; 2-ΔΔCt method
# [5] = test system: Ang II-induced cardiac fibrosis; test: Ang II-induced cardiac fibrosis, preventive model: collagen by Sirius red/fast green in left ventricle; assay type: in vivo, mouse; details: vs Ang II group
# Protocol: Ang II causes myocardial fibrosis in a short period of time (Sopel M et al., 2011, Lab. Invest., 91:565-578) characterized by collagen accumulation and after 14 days of Ang II infusion (Sigusch H H et al., 1996, Cardiovascular Research, 31:546-554). […] Subcutaneous infusion of Ang II using ALZET® osmotic pumps was used to study compound preventive effects. ALZET® osmotic minipumps (Model #2004, Charles Rives, Barcelona, Spain) delivering of Ang II (1.0 mg kg^− min^−) (Sigma-Aldrich, Madrid, Spain) for two weeks. Compound treatment was daily administered in parallel, one day before of the implantation of the subcutaneous pump, beneath the mid scapular loose skin and consisted of daily oral gavage of compound (20 mg/kg) or vehicle (Corn Oil/Maisine CC, 1/1). Mice were acclimated to manipulators for a week previously to the experiments in order to reduce stress and allow the detection of subtle changes in behavior by researchers. […]
# Interstitial heart fibrosis was determined by the measurement of Sirius red/fast green staining (collagen content) (FIG. 1A). […]
# Mice treated with Ang II presented an increase in the thickness of aortic media layer by collagen accumulation. […] Three-four random fields of each heart were photographed by standard brightfield microscopy and digitalized using a Leica DFC420c camera and analyzed using Fiji software (rsb.info.nih.gov/ij/).
# E2F pathway = test: Real-time quantitative PCR of E2F pathway markers in cardiac tissue, Ang II preventive model; assay type: in vivo, mouse; details: Ang II mice; #p<0.05 versus Ang II group
# [6] = test system: Ang II-induced aortic fibrosis; test: Ang II therapeutic model: aorta adventitial collagen, Sirius red; assay type: in vivo, mouse; details: Ang II four weeks, 20 mg/kg oral last two weeks, ###p<0.001 versus Ang II group
# Protocol: as §1
# ERK1+2 = test: Ang II-induced ERK1+2 phosphorylation in hICF, immunoblot; assay type: cell-based, human; details: hICF preincubated with compound, Ang II for 30 minutes
# Protocol: The effect of compound of Formula (VIII) on Ang II signaling pathways in hICF was investigated. ERK1+2 and NFAT activation are two pathways activated by Ang-II (Wakatsuki et al., 2004, Trends Biochem Sci, 29:609-617). hICF were preincubated with compound of Formula (VIII), treated with Ang II for 30 minutes, washed with PBS and proteins extracted in 50 μL of lysis buffer (50 mM Tris-HCl pH 7.5, 150 mM NaCl, 1% (v/v) NP-40, 10% (v/v) glycerol, 10 mM NaF, 1 mM Na3VO4, aprotinin (10 μg/ml), leupeptine (10 μg/ml), pepstatin (1 μg/ml) and 1 mM PMSF saturated). Separated proteins in 10% SDS/PAGE gels were transferred to PVDF membranes and blocked in TBS solution containing 0.1% Tween 20 and 5% bovine serum albumin (BSA) for 1 hour at room temperature. Immunodetection of specific proteins was carried out by incubation with primary antibodies against p-ERK (1:1000; #4695 Cell Signaling Technology) and ERK (1:1000, M5670, Sigma). Membranes were incubated with horseradish peroxidase-conjugated secondary antibody was added and proteins detected by chemiluminescence system (GE Healthcare Europe GmbH). Compound of Formula (VIII) inhibited Ang II-induced ERK1+2 phosphorylation (FIG. 16B).
smiles,measurement,setting,value
C=C(C)C1CCC(C)=C[C@H]1C1=C(O)C(=O)C(CCCCC)=C(NCc2ccccc2)C1=O (stereo partly shown) [Formula (VIII)],behavioral changes,[1],No behavioral changes
same,mice weight,[1]; between experimental groups,no significant changes
same,Ang II perivascular myocardial collagen deposition,[2],reduced
same,behavioral changes,[3],No behavioral changes
same,mice weight,[3]; between experimental groups,no significant changes
same,Ang II-induced NFAT activation (luciferase),NFAT,inhibited
same,IL1β expression level in left ventricle,[4],significantly reduced
same,IL6 expression level in left ventricle,[4],significantly reduced
same,TNC expression level in left ventricle,[4],significantly reduced
same,collagen content accumulation on interstitial area of left ventricle,"[5]; Ang II 1.0 mg kg^- min^- two weeks, 20 mg/kg daily oral gavage",significantly (p<0.001) reduced
same,perivascular collagen content (perivascular myocardial area),"[5]; Ang II two weeks, 20 mg/kg oral",significant reduction
same,CDK1 gene expression in cardiac tissue,E2F pathway,down regulated
same,MKi67 gene expression in cardiac tissue,E2F pathway,down regulated
same,TOP2A gene expression in cardiac tissue,E2F pathway,down regulated
same,aorta collagen content in adventitial layer,[6],antifibrotic activity
same,Ang II-induced ERK1+2 phosphorylation,ERK1+2,inhibited
